Measurements as given in patent publication US9416115B2, “Fused heterocyclic compounds as ion channel modulators” (Gilead Sciences, Inc., priority 2013, dated 2016).

Tests used:
hNav1.1 (SCN1A) = hNav1.1 (SCN1A) (Homo sapiens, UniProt P35498); assay: Use-dependent inhibition of the CNS Nav1.1 sodium channel; type: cell-based; details: use-dependent block, 25 Hz, pulse 20, read-out: Nav1.1 UDB 25 Hz 10 uM
Procedure, shortened: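 HEK-293 cells stably expressing WT hNav1.1, automated whole-cell patch clamp at 23-25 °C with CsF-based internal and NaCl external solutions, pH 7.35. Compound applied twice, 200 s equilibration; block measured at pulse 20 of a 25 Hz train (0 mV, 20 ms) from −120 mV, as mean % inhibition versus compound-free.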

[1] = target: wild-type human cardiac sodium channel, hNav1.5 (Homo sapiens, UniProt Q14524); assay: Late INa screening assay (QPatch whole cell patch clamp, Tefluthrin-induced late current); type: cell-based; details: HEK293 hNav1.5, percent block of late INa
Sequence of wild-type human cardiac sodium channel, hNav1.5 (Q14524 whole entry): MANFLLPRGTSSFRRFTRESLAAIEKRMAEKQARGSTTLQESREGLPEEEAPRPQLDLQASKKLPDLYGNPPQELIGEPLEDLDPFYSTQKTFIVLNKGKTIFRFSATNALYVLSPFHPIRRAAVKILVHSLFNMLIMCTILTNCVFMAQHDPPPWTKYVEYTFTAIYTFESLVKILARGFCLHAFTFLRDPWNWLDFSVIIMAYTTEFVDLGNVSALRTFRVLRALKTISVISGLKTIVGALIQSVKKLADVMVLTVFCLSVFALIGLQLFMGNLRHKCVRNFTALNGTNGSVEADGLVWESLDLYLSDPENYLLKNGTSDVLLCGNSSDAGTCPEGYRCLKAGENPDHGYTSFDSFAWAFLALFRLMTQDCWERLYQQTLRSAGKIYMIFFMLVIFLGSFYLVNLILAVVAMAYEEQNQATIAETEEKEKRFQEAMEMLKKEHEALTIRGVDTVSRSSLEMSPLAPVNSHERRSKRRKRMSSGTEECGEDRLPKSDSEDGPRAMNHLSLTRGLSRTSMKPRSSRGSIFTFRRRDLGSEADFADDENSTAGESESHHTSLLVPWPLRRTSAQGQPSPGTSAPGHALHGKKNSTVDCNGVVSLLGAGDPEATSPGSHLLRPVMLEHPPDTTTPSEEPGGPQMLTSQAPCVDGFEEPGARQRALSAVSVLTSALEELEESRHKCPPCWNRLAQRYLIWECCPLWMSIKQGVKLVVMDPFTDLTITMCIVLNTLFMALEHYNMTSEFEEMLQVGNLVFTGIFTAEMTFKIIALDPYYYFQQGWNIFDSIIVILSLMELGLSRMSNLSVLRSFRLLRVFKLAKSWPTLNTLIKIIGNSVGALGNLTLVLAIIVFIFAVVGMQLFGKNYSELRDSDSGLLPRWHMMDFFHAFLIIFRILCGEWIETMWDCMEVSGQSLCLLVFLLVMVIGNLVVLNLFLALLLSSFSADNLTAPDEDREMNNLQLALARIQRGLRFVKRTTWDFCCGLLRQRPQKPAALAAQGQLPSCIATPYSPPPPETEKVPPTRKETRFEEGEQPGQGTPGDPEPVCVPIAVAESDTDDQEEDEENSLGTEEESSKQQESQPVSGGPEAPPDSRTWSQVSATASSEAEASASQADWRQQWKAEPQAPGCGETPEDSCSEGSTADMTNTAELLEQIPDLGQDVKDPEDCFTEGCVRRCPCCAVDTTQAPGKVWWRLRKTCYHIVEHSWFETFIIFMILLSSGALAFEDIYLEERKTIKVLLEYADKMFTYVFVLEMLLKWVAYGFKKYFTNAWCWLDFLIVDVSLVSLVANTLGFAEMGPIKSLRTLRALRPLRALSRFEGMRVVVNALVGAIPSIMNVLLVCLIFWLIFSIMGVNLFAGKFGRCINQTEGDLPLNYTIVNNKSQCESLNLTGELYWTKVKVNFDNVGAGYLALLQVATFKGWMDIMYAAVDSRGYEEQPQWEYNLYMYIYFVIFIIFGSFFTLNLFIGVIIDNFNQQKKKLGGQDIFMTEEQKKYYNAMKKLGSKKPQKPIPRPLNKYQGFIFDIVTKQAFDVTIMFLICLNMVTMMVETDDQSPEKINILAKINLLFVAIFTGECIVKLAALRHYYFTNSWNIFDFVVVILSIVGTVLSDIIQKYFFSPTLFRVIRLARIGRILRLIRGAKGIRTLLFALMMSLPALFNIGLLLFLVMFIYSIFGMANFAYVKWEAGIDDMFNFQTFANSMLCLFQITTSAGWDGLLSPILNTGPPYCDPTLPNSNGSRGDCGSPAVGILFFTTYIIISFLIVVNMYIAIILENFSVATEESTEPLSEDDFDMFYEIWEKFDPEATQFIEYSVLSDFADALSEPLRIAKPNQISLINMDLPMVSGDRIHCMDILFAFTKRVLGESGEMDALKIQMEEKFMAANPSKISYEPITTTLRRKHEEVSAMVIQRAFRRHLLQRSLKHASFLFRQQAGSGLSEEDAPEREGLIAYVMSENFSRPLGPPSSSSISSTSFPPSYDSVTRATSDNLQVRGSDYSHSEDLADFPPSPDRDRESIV
Procedure, shortened: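 HEK293 cells stably expressing hNav1.5 without beta subunits were whole-cell patch clamped at 23-25 °C, stepping from −120 to −20 mV for 250 ms at 0.1 Hz. Late current (240–265 ms) was induced with 10 μM Tefluthrin, and compounds were added typically at 0.3 or 1 μM. Percent block was taken against 0 Na baseline with rundown correction.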

| SMILES | inhibition at 10 µM (hNav1.1 (SCN1A)) [%] | inhibition at 0.3 µM [1] [%] | inhibition at 1 µM [1] [%] |
| --- | --- | --- | --- |
| Cc1nnc(COc2noc3c(F)cc(-c4ccc(OC(F)(F)F)cc4)cc23)o1 [Example 155, 7-fluoro-3-((5-methyl-1,3,4-oxadiazol-2-yl)methoxy)-5-(4-(trifluoromethoxy)phenyl)benzo[d]isoxazole] | 63.5 | 47 | 69.2 |
| FC(F)(F)Oc1ccc(-c2ccc3onc(NCc4ncco4)c3c2)cc1 [Example 156, N-(oxazol-2-ylmethyl)-5-(4-(trifluoromethoxy)phenyl)benzo[d]isoxazol-3-amine] | 26.5 | 37.9 | 62.8 |
| CC(C)(C)OC(=O)COc1noc2ccc(-c3ccc(OC(F)(F)F)cc3)cc12 [Example 157, tert-butyl 2-((5-(4-(trifluoromethoxy)phenyl)benzo[d]isoxazol-3-yl)oxy)acetate] | < 5 | – | 36.9 |
